In test [1] the test system is IL-15 induced STAT5 phosphorylation in Human Whole Blood (total lymphocytes). The experiment in a line: HWB IL-15 Induced STAT5 Phosphorylation Assay. The test is classed as cell-based. The note with it: Lymphocyte, IL-15 stimulated, read-out: HWB-IL15-pSTAT5 IC50. Here is the method: HWB IL-15 Induced STAT5 Phosphorylation Assay
After mixing and incubating for 45 minutes at 37° C., 5 μl D-PBS (unstimulated control) or 20× stocks of 5 μl human IL-15 (final concentration is 50 ng/ml) were added, and mixed three times. After incubating 15 minutes at 37° C., 1× Lyse/Fix Buffer (BD Phosflow 5× Lyse/Fix Buffer) was added to all wells at 1000 μl/well, then incubated for 20 minutes at 37° C. and spun 5 mins at 1200 rpm. […] Following incubating at 4° C. over night, all the samples were transferred to 96-well polypropylene U-bottom plate, and checked by flow cytometry gated on total lymphocytes.

In test [2] the test system is IL-15 induced P-STAT5 in human PBMC (total lymphocytes). The experiment in a line: PBMC IL-15 Induced P-STAT5. It is filed as cell-based. The note with it: IL-15 stimulated, read-out: PBMC IL15-pSTAT5 IC50. The method in brief:
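Thawed human PBMC in RPMI, preincubated 30 min at 37 °C, then IL-15 stimulated. Cells methanol-permeabilized (90%, on ice 20 min) and stained for phospho-STAT5. Read by flow cytometry, gated on total lymphocytes.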

This is an account of results in patent publication US11111242B2, “Pyrrolo[2,3-d]pyrimidinyl, pyrrolo[2,3-b]pyrazinyl and pyrrolo[2,3-d]pyridinyl acrylamides” (Pfizer Inc., priority 2013, dated 2021).

Read-outs that look alike come from different tables or passages of the source.

With `C=CC(=O)N1CCC(Nc2cnc3[nH]cc(C(=O)N[C@@H]4C[C@H]4C(F)(F)F)c3n2)CC1` [Example 233, 2-[(1-acryloylpiperidin-4-yl)amino]-N-[(1R,2R)-2-(trifluoromethyl)cyclopropyl]-5H-pyrrolo[2,3-b]pyrazine-7-carboxamide], the IC50 in test [1] is 532 nM; in test [2], 213 nM.
Regarding `C=CC(=O)N1CCC(Nc2cnc3[nH]cc(C(=O)NC4CCCC(F)(F)C4)c3n2)CC1` (centres unmarked) [Example 236, 2-[(1-acryloylpiperidin-4-yl)amino]-N-(3,3-difluorocyclohexyl)-5H-pyrrolo[2,3-b]pyrazine-7-carboxamide], the half-maximal inhibitory concentration (IC50) was 438 nM in test [1] and 142 nM in test [2].
For `C=CC(=O)N1CCC(Nc2cnc3[nH]cc(C(=O)NCC4CC(F)(F)C4)c3n2)CC1` [Example 238, 2-[(1-acryloylpiperidin-4-yl)amino]-N-[(3,3-difluorocyclobutyl)methyl]-5H-pyrrolo[2,3-b]pyrazine-7-carboxamide], the IC50 is 615 nM in test [1] and 181 nM in test [2] (Homo sapiens, PBMC).
Take `C=CC(=O)N1CCC(Nc2cnc3[nH]cc(C(=O)NCCCC(F)(F)F)c3n2)CC1` [Example 240, 2-[(1-acryloylpiperidin-4-yl)amino]-N-(4,4,4-trifluorobutyl)-5H-pyrrolo[2,3-b]pyrazine-7-carboxamide]: the 50% inhibitory concentration (IC50) was 442 nM in test [1] and 83.8 nM in test [2].
As for `C=CC(=O)N1CCC(Nc2cnc3[nH]cc(C(=O)NC[C@H](C)CC(F)(F)F)c3n2)CC1` [Example 241, 2-[(1-acryloylpiperidin-4-yl)amino]-N-[(2R)-4,4,4-trifluoro-2-methylbutyl]-5H-pyrrolo[2,3-b]pyrazine-7-carboxamide], the IC50 in test [1] was 657 nM; in test [2] (Homo sapiens, PBMC), 87.9 nM.
For `C=CC(=O)N1CCC(Nc2cnc3[nH]cc(C(=O)NC4CC(F)C4)c3n2)CC1` (centres unmarked) [Example 243, 2-[(1-acryloylpiperidin-4-yl)amino]-N-(3-fluorocyclobutyl)-5H-pyrrolo[2,3-b]pyrazine-7-carboxamide], the IC50 in test [1] came to 617 nM; in test [2] it was 155 nM.
Take `C=CC(=O)N1CCC(Nc2cnc3[nH]cc(C(=O)N[C@H]4CC[C@@H](F)C4)c3n2)CC1` [Example 244, 2-[(1-acryloylpiperidin-4-yl)amino]-N-[(1S,3R)-3-fluorocyclopentyl]-5H-pyrrolo[2,3-b]pyrazine-7-carboxamide]: the concentration for half-maximal inhibition (IC50) in test [1] amounted to 403 nM; in test [2] (Homo sapiens, PBMC), 127 nM.
As to `C=CC(=O)N1CCC(Nc2cnc3[nH]cc(C(=O)NC4CC(F)(F)C4)c3n2)CC1` [Example 245, 2-[(1-acryloylpiperidin-4-yl)amino]-N-(3,3-difluorocyclobutyl)-5H-pyrrolo[2,3-b]pyrazine-7-carboxamide], the 50% inhibitory concentration (IC50) in test [1] was 901 nM; in test [2] it was 228 nM.
For the molecule `C=CC(=O)N1CCC(Nc2cnc3[nH]cc(C(=O)NCCC(F)(F)F)c3n2)CC1` [Example 246, 2-[(1-acryloylpiperidin-4-yl)amino]-N-(3,3,3-trifluoropropyl)-5H-pyrrolo[2,3-b]pyrazine-7-carboxamide], the IC50 in test [1] was determined as 186 nM; in test [2], 43 nM.
As to `C=CC(=O)N1CCC(Nc2cnc3[nH]cc(C(=O)N[C@H]4CC[C@H](F)C4)c3n2)CC1` [Example 247, 2-[(1-acryloylpiperidin-4-yl)amino]-N-[(1S,3S)-3-fluorocyclopentyl]-5H-pyrrolo[2,3-b]pyrazine-7-carboxamide], the 50% inhibitory concentration (IC50) in test [1] amounted to 651 nM; in test [2] (Homo sapiens, PBMC), 141 nM.
For `C=CC(=O)N1CCC(Nc2cnc3[nH]cc(C(=O)N[C@@H]4CCC[C@@H]4F)c3n2)CC1` [Example 251, 2-[(1-acryloylpiperidin-4-yl)amino]-N-[(1R,2S)-2-fluorocyclopentyl]-5H-pyrrolo[2,3-b]pyrazine-7-carboxamide], the 50% inhibitory concentration (IC50) amounted to 810 nM in test [1] and 73.9 nM in test [2].
As to `C=CC(=O)N1CCC(Nc2cnc3[nH]cc(C(=O)NCC(C)CC(F)(F)F)c3n2)CC1` (centres unmarked) [Example 253, 2-[(1-acryloylpiperidin-4-yl)amino]-N-(4,4,4-trifluoro-2-methylbutyl)-5H-pyrrolo[2,3-b]pyrazine-7-carboxamide], the half-inhibitory concentration (IC50) in test [1] worked out at 429 nM; in test [2] (Homo sapiens, PBMC), 77.5 nM.
Turning to `C=CC(=O)N1CCC(Nc2cnc3[nH]cc(C(=O)N[C@@H]4CC[C@H](F)C4)c3n2)CC1` [Example 255, 2-[(1-acryloylpiperidin-4-yl)amino]-N-[(1R,3S)-3-fluorocyclopentyl]-5H-pyrrolo[2,3-b]pyrazine-7-carboxamide], the IC50 in test [1] is 818 nM; in test [2] (Homo sapiens, PBMC), 130 nM.
As to `C=CC(=O)N1CCC(Nc2cnc3[nH]cc(C(=O)NC4CCCCC4(F)F)c3n2)CC1` (centres unmarked) [Example 256, 2-[(1-acryloylpiperidin-4-yl)amino]-N-(2,2-difluorocyclohexyl)-5H-pyrrolo[2,3-b]pyrazine-7-carboxamide], the half-maximal inhibitory concentration (IC50) in test [1] came to 550 nM; in test [2], 48.6 nM.
As for `C=CC(=O)N1CCC(Nc2cnc3[nH]cc(C(=O)NC4CCC(F)(F)C4)c3n2)CC1` (centres unmarked) [Example 259, 2-[(1-acryloylpiperidin-4-yl)amino]-N-(3,3-difluorocyclopentyl)-5H-pyrrolo[2,3-b]pyrazine-7-carboxamide], the results for the IC50 in test [1] and in test [2] were 668 nM and 117 nM, respectively.
Turning to `C=CC(=O)N1CCC(Nc2cnc3[nH]cc(C(=O)NCCC#N)c3n2)CC1` [Example 261, 2-[(1-acryloylpiperidin-4-yl)amino]-N-(2-cyanoethyl)-5H-pyrrolo[2,3-b]pyrazine-7-carboxamide], the values for the concentration for half-maximal inhibition (IC50) in test [1] and in test [2] were 215 nM and 214 nM, respectively.
Taken in the same sequence, the figures for `C=CC(=O)N1CCC(Nc2cnc3[nH]cc(C(=O)N[C@H](CC)CC#N)c3n2)CC1` [Example 263, 2-[(1-acryloylpiperidin-4-yl)amino]-N-[(2R)-1-cyanobutan-2-yl]-5H-pyrrolo[2,3-b]pyrazine-7-carboxamide] were 431 nM and 74.3 nM.
The like results for `C=CC(=O)N1CCC(Nc2cnc3[nH]cc(C(=O)NC(C)(C)C)c3n2)CC1` [Example 266, 2-[(1-acryloylpiperidin-4-yl)amino]-N-tert-butyl-5H-pyrrolo[2,3-b]pyrazine-7-carboxamide] were, in that order, 386 nM and 71 nM.
For the molecule `C=CC(=O)N1CCC(Nc2cnc3[nH]cc(C(=O)N[C@@H](C)CCC)c3n2)CC1` [Example 267, 2-[(1-acryloylpiperidin-4-yl)amino]-N-[(2S)-pentan-2-yl]-5H-pyrrolo[2,3-b]pyrazine-7-carboxamide], the IC50 in test [1] was 242 nM; in test [2], 36 nM.
On to `C=CC(=O)N1CCC(Nc2cnc3[nH]cc(C(=O)N[C@H](C)COC)c3n2)CC1` [Example 268, 2-[(1-acryloylpiperidin-4-yl)amino]-N-[(2R)-1-methoxypropan-2-yl]-5H-pyrrolo[2,3-b]pyrazine-7-carboxamide], for which the IC50 in test [1] worked out at 263 nM; in test [2] (Homo sapiens, PBMC) it was 43.4 nM.
`C=CC(=O)N1CCC(Nc2cnc3[nH]cc(C(=O)NCCCC)c3n2)CC1` [Example 269, 2-[(1-acryloylpiperidin-4-yl)amino]-N-butyl-5H-pyrrolo[2,3-b]pyrazine-7-carboxamide]: the IC50 in test [1] came to 364 nM; in test [2] it was 47.9 nM.
On to `C=CC(=O)N1CCC(Nc2cnc3[nH]cc(C(=O)NCC4CCCC4)c3n2)CC1` [Example 270, 2-[(1-acryloylpiperidin-4-yl)amino]-N-(cyclopentylmethyl)-5H-pyrrolo[2,3-b]pyrazine-7-carboxamide], for which the IC50 in test [1] was 1220 nM; in test [2] (Homo sapiens, PBMC) it was 53.6 nM.
Turning to `C=CC(=O)N1CCC(Nc2cnc3[nH]cc(C(=O)NCC(C)(C)C)c3n2)CC1` [Example 271, 2-[(1-acryloylpiperidin-4-yl)amino]-N-(2,2-dimethylpropyl)-5H-pyrrolo[2,3-b]pyrazine-7-carboxamide], the concentration for half-maximal inhibition (IC50) came to 790 nM in test [1] and 135 nM in test [2] (Homo sapiens, PBMC).
Taken in the same sequence, the figures for `C=CC(=O)N1CCC(Nc2cnc3[nH]cc(C(=O)NCC(C)C)c3n2)CC1` [Example 272, 2-[(1-acryloylpiperidin-4-yl)amino]-N-(2-methylpropyl)-5H-pyrrolo[2,3-b]pyrazine-7-carboxamide] were 259 nM and 72.3 nM.
For `C=CC(=O)N1CCC(Nc2cnc3[nH]cc(C(=O)NCC(F)(F)F)c3n2)CC1` [Example 273, 2-[(1-acryloylpiperidin-4-yl)amino]-N-(2,2,2-trifluoroethyl)-5H-pyrrolo[2,3-b]pyrazine-7-carboxamide], the half-inhibitory concentration (IC50) in test [1] was determined as 214 nM; in test [2], 56.7 nM.
`C=CC(=O)N1CCC(Nc2cnc3[nH]cc(C(=O)N[C@H](C)CCC)c3n2)CC1` [Example 274, 2-[(1-acryloylpiperidin-4-yl)amino]-N-[(2R)-pentan-2-yl]-5H-pyrrolo[2,3-b]pyrazine-7-carboxamide]: the IC50 in test [1] was found to be 476 nM; in test [2], 57.9 nM.
On to `C=CC(=O)N1CCC(Nc2cnc3[nH]cc(C(=O)NCCOC)c3n2)CC1` [Example 275, 2-[(1-acryloylpiperidin-4-yl)amino]-N-(2-methoxyethyl)-5H-pyrrolo[2,3-b]pyrazine-7-carboxamide], for which the concentration for half-maximal inhibition (IC50) in test [1] was found to be 389 nM; in test [2], 149 nM.
Take `C=CC(=O)N1CCC(Nc2cnc3[nH]cc(C(=O)NC(C)(C)CC)c3n2)CC1` [Example 276, 2-[(1-acryloylpiperidin-4-yl)amino]-N-(2-methylbutan-2-yl)-5H-pyrrolo[2,3-b]pyrazine-7-carboxamide]: the IC50 came to 487 nM in test [1] and 57.8 nM in test [2].

In general, IC50 refers to the concentration at which inhibition is half-maximal.
